Source: US20240041832A1, “METHODS AND COMPOSITIONS FOR TREATING EYE DISEASES” (JENIVISION INC., priority 2021, published 2024)
Blank lines part the entries; values can stand above or below the compound they belong to.

Experiments:
[1] = Biodistribution of Beta-Carotene after periorbital skin administration (Example 4); format: in vivo, cynomolgus monkeys; settings: for concentration at 3 h / concentration at 0.5 h / concentration at 6 h / concentration at 24 h: cynomolgus monkey, topical; for concentration at 3 h: 507.6 μg/left eye
Description: [The procedure below names another target; the source lists this target under the same test.] (§1) This is supported by results obtained with a markedly different compound docosahexaenoic acid (DHA), which are shown in Table 2. An oil solution comprising 14.85 mg/mL β-Carotene+198.02 mg/ml DHA in linoleic acid was administered to one eye (OD) by circumferential topical application to the periorbital skin that surrounds the anterior portion of the globe. Blood samples (1 mL) and were collected at 0, 0.5, 2, 6, and 24 hours after a single administration to the periorbital skin of the right eye (OD) At each of the above pre-designated time points, one animal was euthanized after blood collection and selected eye tissue samples were collected from both eyes. The following representative tissues were collected; upper eyelid, cornea, retina, and vitreous humor. DHA concentrations in the samples were determined by the LC-MS/MS method. The DHA was administered via NIODP at the dose of 6775.1±92.5 μg per eye (mean±SEM), to the left eye of monkeys in the pharmacokinetics and biodistribution study. Again, for convenience of sample processing, only upper eyelids were collected. Substantial quantities of DHA (>10 μg/g) remained in the upper eyelid/periorbital region, retina, and cornea, at all tested time points of 0.5, 3, 6 and 24-hour post dosing. […] Compared to the BLQ baseline, plasma concentrations of DHA were between 1.2 and 3.1 μg/ml, equivalent to […] (MW 328.5) via NIODP. The plasma Cmax was at 0.5 hours post-dose.
Thus, not all compounds are readily uptaken and distributed to the posterior area of the eye.

[2] = Biodistribution of DHA after periorbital skin administration (Example 4); format: in vivo, cynomolgus monkeys; settings: for concentration at 0.5 h / concentration at 24 h / concentration at 3 h / concentration at 6 h: cynomolgus monkey, topical; for concentration at 0.5 h: 6567.89 μg/left eye; for concentration at 24 h: 6746.51 μg/left eye; for concentration at 3 h: 6768.26 μg/left eye; for concentration at 6 h: 7017.66 μg/left eye
Description: as §1

[3] = 0.5 h, 492.59 μg/left eye periorbital skin
[4] = 3 h, 507.60 μg/left eye periorbital skin
[5] = 6 h, 526.32 μg/left eye periorbital skin
[6] = 24 h, 505.99 μg/left eye periorbital skin
[7] = 0.5 h, 6567.89 μg/left eye periorbital skin
[8] = 3 h, 6768.26 μg/left eye periorbital skin
[9] = 6 h, 7017.66 μg/left eye periorbital skin
[10] = 24 h, 6746.51 μg/left eye periorbital skin

- % of administered dose, Left cornea [1, 3]: 0.000%
- % of administered dose, Left retina [1, 3]: 0.000%
- % of administered dose, Left upper eyelid [1, 3]: 0.19%
- % of administered dose, Left vitreous humor [1, 3]: 0.000%
- Drug Concentration in Plasma ([1]; 0.5 h, 492.59 μg/left eye periorbital skin, animal 101): BLQ
- % of administered dose, Left cornea [1, 4]: 0.000%
- % of administered dose, Left retina [1, 4]: 0.000%
- % of administered dose, Left upper eyelid [1, 4]: 0.44%
- % of administered dose, Left vitreous humor [1, 4]: 0.000%
- Drug Concentration in Plasma ([1]; 3 h, 507.60 μg/left eye periorbital skin, animal 102): BLQ
- % of administered dose, Left cornea [1, 5]: 0.000%
- % of administered dose, Left retina [1, 5]: 0.000%
- % of administered dose, Left upper eyelid [1, 5]: 0.000%
- % of administered dose, Left vitreous humor [1, 5]: 0.000%
- Drug Concentration in Plasma ([1]; 6 h, 526.32 μg/left eye periorbital skin, animal 103): BLQ
- % of administered dose, Left cornea [1, 6]: 0.000%
- % of administered dose, Left retina [1, 6]: 0.000%
- % of administered dose, Left upper eyelid [1, 6]: 0.000%
- % of administered dose, Left vitreous humor [1, 6]: 0.000%
- Drug Concentration in Plasma ([1]; 24 h, 505.99 μg/left eye periorbital skin, animal 104): BLQ
- concentration at 3 h ([1]; cornea, 3 h, 507.60 μg/left eye periorbital skin, read-out: Drug Concentration in Tissue, Cornea): 0 ng/g
- concentration at 0.5 h ([1]; cornea, 0.5 h, 492.59 μg/left eye periorbital skin, read-out: Drug Concentration in Tissue, Cornea): 0 ng/g
- concentration at 6 h ([1]; cornea, 6 h, 526.32 μg/left eye periorbital skin, read-out: Drug Concentration in Tissue, Cornea): 0 ng/g
- concentration at 24 h ([1]; cornea, 24 h, 505.99 μg/left eye periorbital skin, read-out: Drug Concentration in Tissue, Cornea): 0 ng/g
- concentration at 3 h ([1]; retina, 3 h, 507.60 μg/left eye periorbital skin, read-out: Drug Concentration in Tissue, Retina): 0 ng/g
- concentration at 0.5 h ([1]; retina, 0.5 h, 492.59 μg/left eye periorbital skin, read-out: Drug Concentration in Tissue, Retina): 0 ng/g
- concentration at 6 h ([1]; retina, 6 h, 526.32 μg/left eye periorbital skin, read-out: Drug Concentration in Tissue, Retina): 0 ng/g
- concentration at 24 h ([1]; retina, 24 h, 505.99 μg/left eye periorbital skin, read-out: Drug Concentration in Tissue, Retina): 0 ng/g
- concentration at 3 h ([1]; upper eyelid, 3 h, 507.60 μg/left eye periorbital skin, read-out: Drug Concentration in Tissue, Upper eyelid): 36000 ng/g
- concentration at 0.5 h ([1]; upper eyelid, 0.5 h, 492.59 μg/left eye periorbital skin, read-out: Drug Concentration in Tissue, Upper eyelid): 12600 ng/g
- concentration at 6 h ([1]; upper eyelid, 6 h, 526.32 μg/left eye periorbital skin, read-out: Drug Concentration in Tissue, Upper eyelid): 0 ng/g
- concentration at 24 h ([1]; upper eyelid, 24 h, 505.99 μg/left eye periorbital skin, read-out: Drug Concentration in Tissue, Upper eyelid): 0 ng/g
- concentration at 3 h ([1]; vitreous humor, 3 h, 507.60 μg/left eye periorbital skin, read-out: Drug Concentration in Tissue, Vitreous humor): 0 ng/g
- concentration at 0.5 h ([1]; vitreous humor, 0.5 h, 492.59 μg/left eye periorbital skin, read-out: Drug Concentration in Tissue, Vitreous humor): 0 ng/g
- concentration at 6 h ([1]; vitreous humor, 6 h, 526.32 μg/left eye periorbital skin, read-out: Drug Concentration in Tissue, Vitreous humor): 0 ng/g
- concentration at 24 h ([1]; vitreous humor, 24 h, 505.99 μg/left eye periorbital skin, read-out: Drug Concentration in Tissue, Vitreous humor): 0 ng/g
Compound: CC1=C(/C=C/C(C)=C/C=C/C(C)=C/C=C/C=C(C)/C=C/C=C(C)/C=C/C2=C(C)CCCC2(C)C)C(C)(C)CCC1 [Beta-Carotene, β-Carotene]
- uptake and biodistribution following periorbital administration ([1]; compared with DHA in the same formulation): not as readily uptaken and biodistributed

- maximum in retina ([2]; 0.5-hour post dosing): 111 µg/g
- % of administered dose, Left cornea [2, 7]: 0.03%
- % of administered dose, Left retina [2, 7]: 0.04%
- % of administered dose, Left upper eyelid [2, 7]: 0.42%
- % of administered dose, Left vitreous humor [2, 7]: 0.00%
- Drug Concentration in Plasma ([2]; 0.5 h, 6567.89 μg/left eye periorbital skin, animal 101): 2160 ng/mL
- % of administered dose, Left cornea [2, 8]: 0.01%
- % of administered dose, Left retina [2, 8]: 0.04%
- % of administered dose, Left upper eyelid [2, 8]: 0.38%
- % of administered dose, Left vitreous humor [2, 8]: 0.00%
- Drug Concentration in Plasma ([2]; 3 h, 6768.26 μg/left eye periorbital skin, animal 102): 3130 ng/mL
- % of administered dose, Left cornea [2, 9]: 0.01%
- % of administered dose, Left retina [2, 9]: 0.01%
- % of administered dose, Left upper eyelid [2, 9]: 0.01%
- % of administered dose, Left vitreous humor [2, 9]: 0.00%
- Drug Concentration in Plasma ([2]; 6 h, 7017.66 μg/left eye periorbital skin, animal 103): 2110 ng/mL
- % of administered dose, Left cornea [2, 10]: 0.02%
- % of administered dose, Left retina [2, 10]: 0.03%
- % of administered dose, Left upper eyelid [2, 10]: 0.02%
- % of administered dose, Left vitreous humor [2, 10]: 0.00%
- Drug Concentration in Plasma ([2]; 24 h, 6746.51 μg/left eye periorbital skin, animal 104): 1150 ng/mL
- DHA in vitreous humor ([2]; LLOQ 0.5 μg/ml): below the limit of quantification (BLQ)
- DHA in upper eyelid/periorbital region, retina and cornea ([2]; all tested time points of 0.5, 3, 6 and 24-hour, NIODP 6775.1±92.5 μg per eye): > 10 µg/g
- concentration at 0.5 h ([2]; left cornea, 0.5 h, 6567.89 μg/left eye periorbital skin, read-out: Drug Concentration in Tissue, Left cornea): 66300 ng/g
- concentration at 24 h ([2]; left cornea, 24 h, 6746.51 μg/left eye periorbital skin, read-out: Drug Concentration in Tissue, Left cornea): 25900 ng/g
- concentration at 3 h ([2]; left cornea, 3 h, 6768.26 μg/left eye periorbital skin, read-out: Drug Concentration in Tissue, Left cornea): 21600 ng/g
- concentration at 6 h ([2]; left cornea, 6 h, 7017.66 μg/left eye periorbital skin, read-out: Drug Concentration in Tissue, Left cornea): 22300 ng/g
- concentration at 0.5 h ([2]; left retina, 0.5 h, 6567.89 μg/left eye periorbital skin, read-out: Drug Concentration in Tissue, Left retina): 111000 ng/g
- concentration at 24 h ([2]; left retina, 24 h, 6746.51 μg/left eye periorbital skin, read-out: Drug Concentration in Tissue, Left retina): 47300 ng/g
- concentration at 3 h ([2]; left retina, 3 h, 6768.26 μg/left eye periorbital skin, read-out: Drug Concentration in Tissue, Left retina): 66700 ng/g
- concentration at 6 h ([2]; left retina, 6 h, 7017.66 μg/left eye periorbital skin, read-out: Drug Concentration in Tissue, Left retina): 78600 ng/g
- concentration at 0.5 h ([2]; left upper eyelid, 0.5 h, 6567.89 μg/left eye periorbital skin, read-out: Drug Concentration in Tissue, Left upper eyelid): 381000 ng/g
- concentration at 24 h ([2]; left upper eyelid, 24 h, 6746.51 μg/left eye periorbital skin, read-out: Drug Concentration in Tissue, Left upper eyelid): 16200 ng/g
- concentration at 3 h ([2]; left upper eyelid, 3 h, 6768.26 μg/left eye periorbital skin, read-out: Drug Concentration in Tissue, Left upper eyelid): 420000 ng/g
- concentration at 6 h ([2]; left upper eyelid, 6 h, 7017.66 μg/left eye periorbital skin, read-out: Drug Concentration in Tissue, Left upper eyelid): 10700 ng/g
- concentration at 0.5 h ([2]; left vitreous humor, 0.5 h, 6567.89 μg/left eye periorbital skin, BLQ given 0, read-out: Drug Concentration in Tissue, Left vitreous humor): 0 ng/g
- concentration at 24 h ([2]; left vitreous humor, 24 h, 6746.51 μg/left eye periorbital skin, BLQ given 0, read-out: Drug Concentration in Tissue, Left vitreous humor): 0 ng/g
- concentration at 3 h ([2]; left vitreous humor, 3 h, 6768.26 μg/left eye periorbital skin, BLQ given 0, read-out: Drug Concentration in Tissue, Left vitreous humor): 0 ng/g
- concentration at 6 h ([2]; left vitreous humor, 6 h, 7017.66 μg/left eye periorbital skin, BLQ given 0, read-out: Drug Concentration in Tissue, Left vitreous humor): 0 ng/g
- concentration at 0.5 h ([2]; plasma, 0.5 h, 6567.89 μg/left eye periorbital skin, animal 101, read-out: Drug Concentration in Plasma): 2200 ng/mL
- concentration at 24 h ([2]; plasma, 24 h, 6746.51 μg/left eye periorbital skin, animal 104, read-out: Drug Concentration in Plasma): 1200 ng/mL
- concentration at 3 h ([2]; plasma, 3 h, 6768.26 μg/left eye periorbital skin, animal 102, read-out: Drug Concentration in Plasma): 3100 ng/mL
- concentration at 6 h ([2]; plasma, 6 h, 7017.66 μg/left eye periorbital skin, animal 103, read-out: Drug Concentration in Plasma): 2100 ng/mL
- dose gradient via NIODP ([2]; periorbital skin): eyelid≈retina>cornea>>vitreous humor=0
Compound: CC/C=C\C/C=C\C/C=C\C/C=C\C/C=C\C/C=C\CCC(=O)O [DHA, docosahexaenoic acid]
